Reference: patent publication US20250276996A1, “CATIONICALLY-ENFRAMED HIGH DENSITY AROMATIC PEPTIDES” (Research Foundation of the City University of New York, priority 2022, published 2025)
“And” between values parts separate entries of the source, which are not always exact repeats. Equal values may be shown once. “Also recorded” adds a separate entry of the source. Non-standard residues stand in square brackets, D forms with d. Residues, ends and D or L forms follow the SMILES beside them. *: point of attachment. Biotin = O=C1N[C@H]2[C@H](CS[C@H]2CCCCC(=O)*)N1

Tests used:
[1] = Nile Red fluorescence shift in POPC liposomes; format: binding
Description: (§1) The resulting multilamellar vesicles were vortexed lightly and sized into small unilamellar vesicles by heated bath sonication for 25 min. All liposomes were cooled to ambient temperature before use.
(§2) Interactions between biotin-HDAP2 and Phospholipid liposomes measured by Nile Red fluorescence: The hydrophobicity of biotin-HDAP2 and phospholipids was examined by changes in the spectral fluorescence shift and intensity of Nile Red (NR, 10 μM). NR increases its intensity of fluorescence when combined with the hydrophobic environments of acyl chains of phospholipids, and produces a blue shift when hydrophobicity is increased. All experiments were done with 30 μM of either CL or POPC and 30 μM of biotin-HDAP2 in 10 mM Hepes (pH 7.4) to optimize the electrostatic interactions of peptides with phospholipids. The solvents used to dissolve the various phospholipids (chloroform, methanol, and ethanol) had negligible effects on the fluorescence spectra.

MDBK cells [2] = assay: Cellular oxidative stress in serum-starved cells (CM-H2DCFDA); format: cell-based, bovine; conditions: 1 μM
Description: MDBK cells incubated in serum free media for 5-7 days in the presence or absence of 1 μM of biotin-HDAP2. At the end of the incubation period, 100 nM CM-H2DCFDA (oxidative stress marker) was added to the cells and incubated for 30 minutes. Then, media was removed and cells were fixed in 4% PFA. Cells were then visualized using a fluorescent microscope (Nikon Eclipse-ci-SRS). Experiments were conducted 5 times in triplicate for each experimental condition.
To measure the effects of biotin-HDAP2 on the mitochondrial potential and cellular oxidative stress, cells were cultured in DMEM/F12 without fetal bovine serum (FSB) in the presence or absence of biotin-HDAP2 (1 μM). […]
Unless otherwise noted, data for all tissue culture experiments were collected from three independent trials, with each experiment done in triplicate. […] Photooxidation of the indicator dyes were minimized by using single exposures to the fluorescence for each field imaged. Fluorescence intensity was analyzed using ImageJ (NIH), and MTR and CM-H2DCFDA fluorescence were normalized to Hoechst fluorescence to account for differences in cell number in each field. […] All data are expressed as means±SEM.

[3] = Nile Red fluorescence shift in POPC-CL liposomes; format: binding, bovine; conditions: 638 nm before the shift
Description: as §1, §2

[4] = tested on: retinal ganglion cells (RGCs); assay: Optic nerve crush (ONC), retinal ganglion cell survival; format: in vivo, C57BL/6 mice; conditions: for Average density of retinal ganglion cells: 3 mg/kg IP daily 14 days
From the text: Quantification of Retinal Ganglion Cell Survival: To test whether the protective effects of biotin-HDAP2 in serum-starved cultured cells extended to neurons in vivo, the survival of RGCs following optic nerve crush (ONC) in the presence and absence of the peptide was studied. To control for density differences of RGCs across the retina, values were standardized by comparing ratios of RBPMS-labeled RGCs with the densities of starburst amacrine cells labeled by choline acetyltransferase (ChAT). Starburst amacrine cells, like other displaced amacrine cells, are unaffected by ONC in the short-term. In control tissue, displaced starburst amacrine cells accounted for about […] of cells in the ganglion cell layer and ratios of RBPMS labeled cells to ChAT neurons was about 4 to 1 in central retina and 3 to 1 at other eccentricities (FIG. 11B).
Optic Nerve Crush Procedure: Adult mice (2-6 mo.) were anesthetized with a cocktail of ketamine (85 mg/kg) and xylazine (20 mg/kg) (IP), the corneas were numbed with a drop of 0.5% proparacaine hydrochloride ophthalmic solution (Falcon Pharmaceuticals), and the animals were positioned under a Nikon dissecting microscope, dorsolaterally either on the left or right sides. The dorsomedial conjunctiva was cut with microdissection spring scissors, the […] muscles were separated, and the eyeball was slightly retracted to expose the optic nerve. Fine, self-closing forceps (Roboz, RS-5027) were used to clamp the optic nerve 1-2 mm behind the globe, for approximately 3 seconds without applying additional tension. The eye was repositioned within the orbit, the conjunctiva reflected over the extraocular eye muscles and the incision covered with ophthalmic polymyxin B-neomycin-bacitracin ointment (3.5 mg/gm, Bausch and Lomb). The optic nerves from the contralateral eye were untouched and used as untreated controls. Following the crush procedure, mice were given a subcutaneous injection of extended-release buprenorphine (0.05 mg/kg, Ethiqua XR) for analgesia and placed on a heating pad until awake and grooming, at which point they were returned to their home cages. Half the animals were given biotin-HDAP2 immediately following the procedure and then daily thereafter (3 mg/kg, IP) for 14 days.
Immunohistochemistry: Fixed retinas were labeled with cell markers using conventional immunohistochemical protocols to identify cells and structures associated with biotin-HDAP2, and to identify retinal ganglion cells and starburst amacrine cells to assess cell survival following optic nerve crush. Retinas and sections were blocked and permeabilized with 4% normal donkey serum in 0.1M Tris or phosphate buffers with 0.5% Triton-X for 1 hour and then incubated overnight (for sections) or for 3 days (for wholemounts) at 4° C. in selected primary antibodies, and 2% normal donkey serum in the same buffer. The tissue was rinsed 3×10 minutes with buffer and then incubated with secondary antibodies for one hour at room temperature (sections) or overnight at 4° C. for wholemounts. Antibodies and markers used were rabbit anti-RBPMS (1:200; Invitrogen, PA5-31231) to label all retinal ganglion cells; goat anti-choline acetyltransferase (ChAT 1:100; EMD Millipore, AB144P) to label starburst amacrine cells; rabbit anti-glutamine synthetase (1:200; Invitrogen, PA1-46165) to label Müller cells; and rabbit anti-cox4 (1:200; Invitrogen, PA5-29992) to identify mitochondria. Secondary antibodies were raised in donkey and conjugated with either Alexa Fluor 488, 594 or 647 (1:500, Life Sciences). To identify the distribution of cell nuclei, and to delineate retinal layers, tissue was labeled with the nuclear stain ToPro3 (1:1000; Invitrogen) for 15 minutes. After staining, sections and retinas were rinsed in buffer and coverslipped in Vectashield mounting media (Vector Labs) to prevent photobleaching. […]

MDBK cells [5] = conditions: dilutions up 100 μM

SMILES: N=C(N)NCCC[C@@H](NC(=O)[C@H](Cc1ccccc1)NC(=O)[C@H](Cc1ccccc1)NC(=O)[C@@H](CCCNC(=N)N)NC(=O)CCCC[C@@H]1SC[C@@H]2NC(=O)N[C@@H]21)C(N)=O [biotin-HDAP2, Biotin-dArg-Phe-Phe-dArg-NH2] (Biotin-[dR]FF[dR]-NH2)
- Nile Red shift [1]: no shift could be detected
- oxidative stress in starved cells (MDBK cells [2]; serum free 5-7 days, 100 nM CM-H2DCFDA): prevented oxidative stress in starved cells
- reduction in CM-H2DCFDA fluorescence compared to control (MDBK cells [2]; serum-free): > 80% and 80%
- Nile Red emission after blue shift [3]: 618 nm
- protection of retinal ganglion cells following optic nerve crush ([4]; 3 mg/kg): protected retinal ganglion cells following optic nerve crush; also recorded: significantly greater survival of retinal ganglion cells
- Average density of retinal ganglion cells ([4]; Central, ONC): 446.1 ± 42.92 cells/mm2
- Average density of retinal ganglion cells ([4]; Midperipheral, ONC): 694.5 ± 52.61 cells/mm2
- expression of RBPMS compared to untreated ([4]; ONC): doubled
- ratio of RGCs to ChAT cells (to 1) ([4]; ONC, treated): 0.70
- more RBPMS labeled cells than untreated animals ([4]; ONC, treated daily): 40%
- expression of RBPMS (mean pixel intensity) ([4]; ONC, treated, n=23): 9.8±0.78 arbitrary fluorescence units
- survival of retinal ganglion cells greater compared to untreated controls ([4]; ONC, intraperitoneal or subcutaneous administration): 50%
- Average density of retinal ganglion cells ([4]; Peripheral, ONC): 565.4 ± 53.61 cells/mm2
- percent increase in RBPMS labeled cells vs untreated ONC ([4]; central retina): 18%
- percent increase in RBPMS labeled cells vs untreated ONC ([4]; midperipheral retina): 38%
- percent increase in RBPMS labeled cells vs untreated ONC ([4]; periphery): 50%
- cellular toxicity (MDBK cells [5]): No toxicity in MDBK cell growth was observed
